# In patent US12569438B2, “Nanomaterials containing constrained lipids and uses thereof” (GEORGIA TECH RESEARCH CORPORATION, priority 2019, dated 2026):
# Tested on: splenic T cells
# Test: DNA barcode/siGFP high throughput in vivo screen: delivery and enrichment of pooled LNPs in GFP^Low splenic T cells
# Design: species or system mice
# Details: pooled LNPs 1.5 mg/kg total iv, 3 days
# Source text: DNA Barcoding. Each chemically distinct LNP was formulated to carry its own unique DNA barcode and siRNA. For example, LNP1 carried DNA barcode 1 and siICAM2, while the chemically distinct LNP2 carried DNA barcode 2 and siGFP. Single stranded DNA sequences were purchased from Integrated DNA Technologies (IDT). To ensure equal amplification of each sequence, we included universal forward and reverse primer regions. Each barcode was distinguished using a unique 8 nucleotide sequence. An 8 nucleotide sequence can generate 65,536 distinct barcodes. 156 distinct sequences designed to prevent sequence ‘bleaching’ on the Illumina MiniSeq sequencing machine were used.
# Animal Experiments. […] Mice were injected intravenously via the lateral tail vein. The nanoparticle concentration was determined using NanoDrop (Thermo Scientific).
# Cell Isolation & Staining. […]
# LNP delivery of siRNA to target cells (in this case, T lymphocytes) as well as 8 off-target cell types in vivo was evaluated. siGFP chemically modified to reduce immunostimulation and enhance on-target silencing via preferential antisense RISC loading (FIG. S2A) was used. […] The GFP acted as the functional delivery readout. […] Thus, 3 days after injecting mice, GFP^Low cells were isolated using fluorescence activated cell sorting (FACS), and deep sequenced to quantify the efficiency with which all N LNPs delivered barcodes into the cells. […]
compound,measurement,setting,value
"CCCCC/C=C\C/C=C\CCCCCCCC(=O)OCC(COC(=O)C[C@]12CC3CC(C[C@@H](C3)C1)C2)COC(=O)OCCCN(CC)CC (some centres unmarked) [Lipomer 11-A, 3-[(1-Adamantanyl)acetoxy]-2-{[3-(diethylamino)propoxycarbonyloxy]methyl}propyl (9Z,12Z)-9,12-octadecadienoate]",Normalized DNA delivery,GFP^Low splenic T cells,significantly more delivery than 11-L and 11-S
same,Enrichment in T Cells,"splenic T cells, top 10% vs bottom 10% LNPs, DSPC formulations",most enriched
